Laboratory results taken from the OPERA property sets (Mansouri et al. 2018).

Going from `COc1cc(S(C)=O)ccc1-c1nc2nnccc2[nH]1` (configuration not stated) to `COc1ccccc1OC(C)=O`, the logP rises from 0.23 to 1.38.

Compared with `CCCN(CCC)N=O`, `CN(C)CCN(C)C` is lower in logP: 1.36 for the first, 0.3 for the second.

Compared with `CSc1ccc(COC(=O)N(C)C)cc1`, `CC(=O)c1ccc(C(=O)OCCN(C)C)cc1` is lower in logP: 2.86 for the first, 1.57 for the second.

Going from `O=C1C=C(Cl)C(=O)c2ccccc21` to `O=C1c2ccccc2-c2ccccc21`, the logP rises from 2.29 to 3.58.

`CCN(CC)CC(=O)NC1CCc2ccccc21` (configuration not stated) and `CCC(C)C(=O)Nc1ccccc1` (configuration not stated) are within 0.2 log units of each other in logP: 2.74 for the first, 2.56 for the second.

Going from `O=S1(=O)C=Cc2ccccc21` to `CC(=O)c1c[nH]c2ccccc12`, the logP rises from 0.88 to 2.06.

Compared with `Oc1ccc(N=C=S)cc1`, `CCCCOC(=O)c1ccc(O)cc1` is higher in logP: 2.74 for the first, 3.57 for the second.

Compared with `N#Cc1cccc(C(=O)O)c1`, `CN(C)C(=O)c1ccccc1` is lower in logP: 1.48 for the first, 0.62 for the second.

Going from `CN(C)C(N(C)C)=S(I)c1ccc(C(=O)O)cc1` (configuration not stated) to `CN(C)c1ccc(C(=O)c2ccc(N(C)C)cc2)cc1`, the logP rises from -1.28 to 3.87.

Going from `O=C(c1ccccc1)c1ccccc1O` to `O=C(c1ccccc1)c1ccc(O)cc1`, the logP falls from 3.52 to 3.07.

`CC(=O)Cc1ccccc1` and `CNC(=S)NCc1ccccc1` are within 0.2 log units of each other in logP: 1.44 for the first, 1.35 for the second.

Going from `CSSC` to `CNC(=O)ON=CC(C)(C)SC`, the logP falls from 1.77 to 1.13.

First: CC(C)(C)C(N)Cc1ccccc1 (configuration not stated)
Second: CNC(=O)Oc1ccccc1C(C)(C)C
The logP of the first is higher: 2.91 for the first, 2.65 for the second.

Compared with `CCCCCCCCCC(=O)N1CCCC1=O`, `CCCCCOC(=O)c1ccc(N)cc1` is lower in logP: 4.33 for the first, 3.48 for the second.

Compared with `CC(C)NNC(=O)COc1ccc(Cl)cc1`, `COc1ccccc1OCC(=O)NNC(C)C` is lower in logP: 2.02 for the first, 1.11 for the second.

Compared with `COP(=O)(OC)OC(=CCl)c1cc(Cl)c(Cl)cc1Cl`, `Clc1cc(Cl)c(-c2cccc(Cl)c2Cl)cc1Cl` is higher in logP: 3.53 for the first, 6.67 for the second.

Going from `OC(c1ccccc1)(C(F)(F)F)C(F)(F)F` to `NC(=S)NN=Cc1ccccc1`, the logP falls from 3.41 to 1.86.

First: Cn1c([N+](=O)[O-])cnc1-c1ccc(C(N)=O)cc1
Second: CC(=O)Oc1ccc(C(N)=O)cc1
The logP of the first is higher: 0.98 for the first, 0.27 for the second.

Going from `CNC(=O)Oc1ccccc1[N+](=O)[O-]` to `COC(=O)c1cc(Oc2ccc(Cl)cc2Cl)ccc1[N+](=O)[O-]`, the logP rises from 1.02 to 4.48.

First: CCOc1cccc(NC(C)=O)c1
Second: CCOC(=O)C(=Cc1ccc(Cl)c(Cl)c1)C(C)=O
The logP of the first is lower: 1.82 for the first, 3.92 for the second.

First: FCF
Second: OCCCO
The logP of the first is higher: 0.2 for the first, -1.04 for the second.

First: Nc1ccc(S(=O)(=O)c2ccc(F)cc2)cc1
Second: Nc1ccc(S(=O)(=O)Nc2ccccc2)cc1
The logP of the first is higher: 2.17 for the first, 1.55 for the second.

Compared with `OCC(CO)(CBr)CBr`, `C=CCCBr` is higher in logP: 1.06 for the first, 2.53 for the second.

Going from `CC(C)NCC(O)COc1cccc2[nH]c3ccccc3c12` (configuration not stated) to `Cc1cccc2ccccc12`, the logP rises from 3.59 to 3.87.

First: CCNC(=O)c1cccnc1
Second: Cc1ccc(NC(=O)c2cccnc2)cc1
The logP of the first is lower: 0.31 for the first, 2.08 for the second.

Going from `COc1ccc(CC#N)cc1OC` to `COc1ccc(N)cc1`, the logP falls from 1.15 to 0.95.

Compared with `CC1=C(C)C(=O)C(C)=C(C)C1=O`, `COc1c(O)c(OC)c(OC)c(O)c1OC` is lower in logP: 2.23 for the first, 0.39 for the second.

Compared with `NS(=O)(=O)c1nc2ccc(Cl)cc2s1`, `Cc1c(CC(=O)O)sc2ccc(Cl)cc12` is higher in logP: 2.1 for the first, 3.92 for the second.

First: Clc1nc(Cl)c(Cl)[nH]1
Second: Clc1cc(-c2ccccc2)c(Cl)c(Cl)c1Cl
The logP of the first is lower: 1.85 for the first, 6.41 for the second.

Going from `O=C(O)CC(O)C(=O)O` (configuration not stated) to `NC(=O)NO`, the logP falls from -1.26 to -1.8.

Going from `O=Cc1ccoc1` to `Nc1nc(=O)c2ccccc2o1`, the logP falls from 0.51 to 0.27.

Compared with `Nc1ccc(Cc2ccc(N)cc2)cc1`, `ClCc1cccc(CCl)c1` is higher in logP: 1.59 for the first, 2.72 for the second.

Going from `NS(=O)(=O)c1ccc2c(c1)S(=O)(=O)NC(CC1CCCC1)N2` (configuration not stated) to `NCCCc1ccncc1`, the logP falls from 1.24 to 0.4.

Going from `CCN(C)N=Nc1ccc(C(N)=O)cc1` to `CN(C)C(=S)NN`, the logP falls from 1.69 to -0.3.

First: C=C=C
Second: COCC(O)Cn1cnc([N+](=O)[O-])n1 (configuration not stated)
The logP of the first is higher: 1.45 for the first, -0.49 for the second.

First: C#C
Second: NN1CCCCC1
The logP of the first is higher: 0.37 for the first, -0.28 for the second.
